Experimental data reported in patent publication US10517833B2 (Cardiora Pty Ltd., priority 2011, dated 2019).
In brackets after ≈: the same amount, converted by molar mass. Where two headings read alike, the source gives them in different places.

What was measured:
[1] = tested on: patients undergoing CABG surgery; conditions: ten minutes after drug administration versus before; cited from earlier work
[2] = tested on: patients with left ventricular dysfunction and/or pulmonary hypertension; conditions: 50 μg/kg loading then 0.5 μg/kg/minute, n=15; cited from earlier work
[3] = after 6 hours (equilibrium), AHF patients, cited from earlier work
refractory HF patients = conditions: 12-month study, cited from earlier work
[4] = tested on: Human internal mammary arterial rings; conditions: rings pretreated with milrinone; cited from earlier work
[5] = tested on: patients undergoing cardiopulmonary bypass; conditions: cited from earlier work
[6] = pH solubility studies on Milrinone (saturated solubility in different buffers); type: physicochemical; conditions: for solubility at 24 h: thermodynamic from solid
Description: 1. pH 1.2-Hydrochloric Acid Buffer
3. pH 6.8-Phosphate Buffer
4. pH 7.4-Phosphate Buffer.
1. 2 mL buffer solution is placed into a 8 mL USP Type I clear glass vial (with screw cap and PTFE septa)
3. The addition of Milrinone is continued till the formation of saturated solution.
4. The pH of the saturated solution is measured after the addition of Milrinone.
5. If there is any difference in pH more than 0.1 units is observed when compared to the initial pH, the pH was adjusted with acid or base respectively to bring it to the initial pH.
6. The vials are closed with screw cap and kept for mixing using rotary tube shaker for 24 h.

[7] = tested on: patients with NYHA class III or IV HF and pulmonary vascular resistance of 200 dynes/s/cm or more; parameters: dose or concentration left out as unconfirmed; conditions: cited from earlier work
patients with CHF = tested on: patients with CHF; parameters: dose or concentration left out as unconfirmed; conditions: 15 minutes post-dosing, cited from earlier work
[8] = tested on: patients with class III or IV CHF; conditions: after milrinone therapy; 5 patients at baseline; cited from earlier work
patients with severe CHF [9] = conditions: cited from earlier work
[10] = tested on: pediatric patients with low cardiac output; conditions: intravenous; cited from earlier work
[11] = tested on: pediatric patients at high risk for developing low cardiac output syndrome (LCOS); conditions: cited from earlier work
[12] = tested on: patients with endstage CHF; conditions: compared with the preceding 3 months; cited from earlier work
patients with severe CHF [13] = conditions: oral, cited from earlier work

CNC[C@H](O)c1ccc(O)c(O)c1 [epinephrine]
change in IMA flow [1]: unchanged

Cc1[nH]c(=O)c(C#N)cc1-c1ccncc1 [milrinone, 1,2-dihydro-3-cyano-6-methyl-5-(4-pyridinyl)-2(1H)-pyridinone]
weaning from cardiopulmonary bypass [2]: all patients were successfully weaned
plasma milrinone concentration ([3]; continuous infusion 0.25 μg/kg after loading dose): 97 ng/mL
plasma milrinone concentration ([3]; continuous infusion 0.5 μg/kg after loading dose): 197 ng/mL
plasma milrinone concentration ([3]; continuous infusion 0.75 μg/kg after loading dose): 284 ng/mL
emergency room admissions (refractory HF patients; from 21 in previous year): 10
hospital admissions (refractory HF patients; from 75 in previous year): 34
hospital days (refractory HF patients; from 528 in previous year): 150
vasoconstriction by K+, ET-1, U46619 and phenylephrine [4]: significantly less vasoconstricition
change in IMA flow [1]: 24%
Plasma concentrations of IL1-beta and IL6 ([5]; after CPB, versus control group, 0.5 μg/kg/minute for 24 hours): significantly lower
concentrations of cyclic adenosine monophosphate ([5]; versus controls): significantly increased
solubility ([6]; acidic pH, decreases gradually with increase in pH): highly soluble
solubility at 24 h ([6]; aqueous buffer, pH 4.5 Acetate Buffer): 1.83 mg/mL (≈ 8.64 mM)
solubility at 24 h ([6]; aqueous buffer, pH 6.8 Phosphate Buffer): 0.742 mg/mL (≈ 3.51 mM)
solubility at 24 h ([6]; aqueous buffer, pH 7.4 Phosphate Buffer): 0.603 mg/mL (≈ 2.85 mM)
solubility at 24 h ([6]; hydrochloric acid buffer, simulated gastric fluid, pH 1.2 Hydrochloric Acide Buffer): 25.4 mg/mL (≈ 120 mM)
mean decrease in pulmonary vascular resistance ([7]; at 5 minutes): 31%
duration of response [7]: at least 20 minutes
pulmonary vascular resistance (patients with CHF; from 3.9): 2.5 Wood units
Cardiac output (patients with CHF; from 4.0): 5.1 L/min
pulmonary capillary wedge pressure (patients with CHF; from 20): 15 mmHg
mean pulmonary artery pressure (patients with CHF; from 35): 28 mmHg
inducible VT during programmed right ventricular stimulation [8]: none of the patients experienced inducible VT
left ventricular end-diastolic pressure (patients with severe CHF [9]; after median short-term infusion 75 μg/kg IV, from 27 at baseline): 18 mmHg
increase in left ventricular ejection fraction (patients with severe CHF [9]; following a 7.5 mg oral dose, 10 patients on drug for 6 months or longer): 27%
decrease in mean arterial pressure (patients with severe CHF [9]; intravenous): 6%
increase in peak positive first derivative of left ventricular pressure (dP/dT) (patients with severe CHF [9]; intravenous): 28%
increase in resting heart rate (patients with severe CHF [9]; intravenous): 8%
fever, thrombocytopenia, or gastrointestinal toxicity (patients with severe CHF [9]; oral therapy, average 29 mg daily, up to 11 months): No evidence
average peak plasma concentration [10]: 235 ng/mL
mean decrease in blood pressure [10]: 12%
patients who developed LCOS ([11]; high-dose group, within 36 hours): 9.6%
patients with prolonged hospital stays (longer than 15 days) ([11]; high-dose group): 13.5%
RRR of LCOS ([11]; low-dose group versus placebo, not statistically significant): 34%
patients who developed LCOS ([11]; low-dose group): 17.7%
patients with prolonged hospital stays (longer than 15 days) ([11]; low-dose group): 8.2%
drop in number of hospitalizations [12]: fourfold
mortality rate (patients with severe CHF [13]; at 1 year of therapy): 63%
mortality rate (patients with severe CHF [13]; at 6 months): 39%
patients with adverse effects (patients with severe CHF [13]; average 27 mg/day): 11%
patients with drug withdrawal due to adverse effects (patients with severe CHF [13]; average 27 mg/day): 4%
patients improved by at least one New York Heart Association functional class (patients with severe CHF [13]; within 1 month of therapy, remaining 94 patients): 51%
